Measured values reported in patent US5364776A, “Method of hydroxylating 3-[3-(5-ethyl-2-methoxy-6-methylpyridyl)methyl]amino-5-ethyl-6-methyl-2( 1H)-pyridinone with liver slices” (Merck & Co., Inc., priority 1992, dated 1994).

Assays:
[1] = In vitro metabolism of compound II with rat liver slices; type: in vitro ADME; conditions: 157.7 μM, four hours, 37° C., pH 7.4, HPLC photodiode array-UV
Procedure: Compound II (157.7 μM) was incubated with rat liver slices (10.17 g wet weight, 250-400 μ thick, ~1.2 cm wide) in 100 ml of Williams' Medium E at pH 7.4 and at 37° C. under an atmosphere of 95% oxygen and 5% carbon dioxide. After four hours the incubation mixture was extracted with ethyl acetate. The extract was evaporated to dryness and the residue reconstituted in methanol. The reconstitute was subjected to preparative HPLC on a reverse-phase column with an on-line UV-diode array detector. Three major metabolites--Ia, Ib and Ic--were isolated for characterization by NMR spectroscopy and mass spectrometry.
The three major products were identified by proton NMR (500 MHz; see Table below) and mass spectrometry as resulting from α-hydroxylation of the ethyl group on the pyridinone (HPLC Peak designating compound Ia), and β- and α-hydroxylation of the ethyl group on the pyridine (designated compounds Ic and Ib, respectively). [drawing 14]

[2] = target: T1, recombinant HIV reverse transcriptase (HIV RTR) (Human immunodeficiency virus type 1 group M subtype B, UniProt P04585); experiment: Reverse transcriptase assay: incorporation of tritiated deoxyguanosine monophosphate into acid-precipitable cDNA by recombinant HIV reverse transcriptase; type: biochemical; conditions: poly r(C).oligo d(G)12-18 template, [3H]dGTP, pH 8.2 buffer, 37° C., 45 minutes
T1 construct: recombinant HIV reverse transcriptase (HIV RTR)
Procedure: The assay measures the incorporation of tritiated deoxyguanosine monophosphate by recombinant HIV reverse transcriptase (HIV RTR) (or other RT) into acid-precipitable cDNA at the Km values of dGTP and poly r(C).cndot.oligo d(G)12-18.
Thirty uL of a reaction mixture containing equal volumes of: 500 mM Tris.cndot.HCl (pH 8.2), 300 mM MgCl2, 1200 mM KCl, 10 mM DTT, 400 μg/mL poly r(c).cndot.oligo d(G) [prepared by dissolving 1.5 mg (25 U) poly r(C).cndot.oligo d(G) in 1.5 ml sterile distilled H2 O and diluting to 400 μg/ml], 0.1 μCi/μl [^3 H]dGTP, 160 μM dGTP, was added to 10 μl sterile distilled H2 O, and 2.5 μl of potential inhibitor. An aliquot of 10 μL of 5 nM purified HIV RTR was added to initiate the reaction. The mixture was incubated at 37° C. for 45 minutes.
After incubation is complete, the tubes were cooled in ice for 5 minutes. Ice-cold 13% TCA containing 10 mM NaPPi (200 μl) are added and the mixture incubated on ice for 30 minutes. The precipitated cDNA is removed by filtration using presoaked glass filters [TCA, NaPPi ]. The precipitate is then washed with 1N HCl, 10 mM NaPPi.
The filter discs are then counted in a scintillation counter.
Under these conditions [dGTP] and poly r(C).cndot.oligo d(G)12-18 each are approximately equal to the appropriate Km value. Approximately 5-6,000 cpm of [^3 H] GMP are incorporated into acid-precipitable material. The RT reaction is concentration- and time-dependent. […] The calculated IC50 values for the compounds of this invention are as follows: […]

| Structure (SMILES) | number of major products (metabolites) formed [1] | number of minor products formed [1] | IC50 [2] [nM] |
| --- | --- | --- | --- |
| CCc1cc(NCc2cc(CC)c(C)nc2OC)c(O)nc1C [Compound II, 3-[3-(5-ethyl-2-methoxy-6-methylpyridyl)methyl]amino-5-ethyl-6-methyl-2(1H)-pyridinone] | three | at least 5 | 29 |
| CCc1cc(CNc2cc(C(C)O)c(C)[nH]c2=O)c(OC)nc1C (stereo not drawn) [Ia, 3-[3-(5-ethyl-2-methoxy-6-methylpyridyl)methyl]amino-5-(1-hydroxy)ethyl-6-m ethyl-2(1H )-pyridinone] | – | – | 195 |
| CCc1cc(NCc2cc(C(C)O)c(C)nc2OC)c(=O)[nH]c1C (stereo not drawn) [Ib, 3-[3-(5-(1-hydroxy)ethyl-2-methoxy-6-methylpyridyl)methyl]amino-5-ethyl-6-m ethyl-2(1H)-pyridinone] | – | – | 390 |
| CCc1cc(NCc2cc(CCO)c(C)nc2OC)c(=O)[nH]c1C [Ic, 3-[3-(5-(2-hydroxy)ethyl-2-methoxy-6-methylpyridyl)-methyl]amino-5-ethyl-6-methyl-2(1H)-pyridinone] | – | – | 250 |
